Our source for the IC50 and EC50 values is patent publication US20110065760A1, “COMPOUNDS FOR THE INHIBITION OF ROTAMASES AND USE THEREOF” (Jerini AG, priority 2002, published 2011).

Structures are written as SMILES.

One data set has as its target hPin1 (Homo sapiens, UniProt Q13526). In words: protease-coupled PPIase assay, hPin1. Format: biochemical. The following applies: 6 nM hPin1, substrate Ac-Ala-Ala-Ser(PO3H2)-Pro-Arg-pNA, trypsin, pH 7.8, 6° C.; read-out: IC50 class, Target T-1 (hPin1).
A further data set addresses LpCyp18 (Legionella pneumophila, UniProt Q5ZRZ4). The experiment in a line: biochemical. The following applies: IC50 class, Target T-4 (LpCyp18).
The target of another data set is hCyp18 (Homo sapiens, UniProt P62937). The experiment in a line: protease-coupled PPIase assay, hCyp18. The following applies: 10 nM hCyp18, substrate Suc-Ala-Phe-Pro-Phe-pNA, chymotrypsin, pH 7.8, 6° C.; read-out: IC50 class, Target T-3 (hCyp18). The class given is biochemical.
Sequence of hCyp18 (P62937 whole entry): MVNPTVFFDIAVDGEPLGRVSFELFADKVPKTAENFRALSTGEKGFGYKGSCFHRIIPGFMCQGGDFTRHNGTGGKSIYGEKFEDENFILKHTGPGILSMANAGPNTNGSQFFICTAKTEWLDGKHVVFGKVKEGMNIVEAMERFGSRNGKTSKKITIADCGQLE
The target in the next data set is hFKBP12 (Homo sapiens, UniProt P62942). In words: protease-coupled PPIase assay, hFKBP12. Format: biochemical. The following applies: 20 nM hFKBP12, substrate Suc-Ala-Phe-Pro-Phe-pNA, chymotrypsin, pH 7.8, 6° C.; read-out: IC50 class, Target T-2 (hFKBP12).
Sequence of hFKBP12 (P62942 whole entry): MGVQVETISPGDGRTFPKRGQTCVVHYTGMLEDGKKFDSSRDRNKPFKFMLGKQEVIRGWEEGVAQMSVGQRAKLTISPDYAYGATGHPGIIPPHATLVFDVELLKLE
In another data set the target is EcParvulin (Escherichia coli, UniProt P0A9L5). In words: protease-coupled PPIase assay, EcParvulin. The following applies: 20 nM EcParvulin, substrate Suc-Ala-Phe-Pro-Phe-pNA, chymotrypsin, pH 7.8, 6° C.; read-out: IC50 class, Target T-5 (EcParv). Format: biochemical.
Sequence of EcParvulin (P0A9L5 whole entry): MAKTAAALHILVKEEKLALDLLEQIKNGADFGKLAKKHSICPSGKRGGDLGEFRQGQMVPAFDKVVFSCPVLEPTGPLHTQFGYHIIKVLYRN
Data set [1] in a line: WST-1 cytotoxicity assay, HL-60. The class given is cell-based. The following applies: human, HL-60 cells (acute myeloid leukemia); WST-1, 48 h incubation; read-out: EC50 class, cytotoxic effect, CL-1 (HL-60). As for the experimental part:
For this cytotoxic evaluation of the compounds the commercial available WST-1 assay (Roche) was used according to the manufacturer's instructions. The assay is based on the cleavage of the tetrazolium salt WST-1 by mitochondrial dehydrogenases found in viable cells. In general compounds were added to cells cultured in 96-well plates at 37° C. After 48 h of incubation 10 μl of WST-1 solution was added. The formazan dye was analyzed with an ELISA plate reader at (450 vs. 620) nm. CL-1: human acute myeloid leukemia, HL-60 CL-2: human cervix carcinoma, HeLa CL-3: human prostate carcinoma, PC-3 CL-4: human colon adenocarcinoma, Caco-2 CL-5: human breast adenocarcinoma, MCF-7
(In general: Tetrazolium dyes change colour on reduction, which living cells bring about.)

Sequence of LpCyp18 (Q5ZRZ4 1-164): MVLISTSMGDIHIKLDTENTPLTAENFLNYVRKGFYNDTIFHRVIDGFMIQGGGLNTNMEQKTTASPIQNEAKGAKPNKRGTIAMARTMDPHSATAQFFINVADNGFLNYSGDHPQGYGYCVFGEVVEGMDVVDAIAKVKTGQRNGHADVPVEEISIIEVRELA
Sequence of hPin1 (Q13526 whole entry): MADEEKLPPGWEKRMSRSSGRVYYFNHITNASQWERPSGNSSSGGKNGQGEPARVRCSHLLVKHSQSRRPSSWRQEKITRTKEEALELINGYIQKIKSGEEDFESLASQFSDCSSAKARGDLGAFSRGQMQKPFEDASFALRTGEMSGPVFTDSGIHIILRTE

For `CC(C)(C)NC(=O)Nc1cc(Cl)cc(Cl)c1O` [Compound 31], the 50% inhibitory concentration (IC50) (commonly the point on the concentration scale where inhibition reaches its midpoint) at hPin1 is less than 1 µM.

For the compound `Cc1c(Cl)cc(NC(=O)Nc2ccccc2)c(O)c1Cl` [Compound 120], the IC50 against LpCyp18 is greater than 100 µM; at hPin1 it was 10 to 50 µM; at hCyp18, 10 to 50 µM; on hFKBP12, 50 to 100 µM.

For the compound `CC(C)(C)CC(C)(C)NC(=O)Nc1cc(Br)cc(F)c1O` [Compound 126], the half-inhibitory concentration (IC50) at hPin1 was less than 1 µM.

Regarding `CC(C)(C)NC(=O)Nc1cc(Br)cc(F)c1O` [Compound 127], the IC50 on hPin1 is 1 to 10 µM.

Turning to `O=C(Nc1cc(Br)cc(F)c1O)NC12CC3CC(CC(C3)C1)C2` [Compound 142], the concentration for half-maximal inhibition (IC50) at hPin1 is less than 1 µM.

With `Cc1c(Cl)cc(NC(=S)NC(C)(C)CC(C)(C)C)c(O)c1Cl` [Compound 257], the 50% inhibitory concentration (IC50) on hPin1 was less than 1 µM.

With `Cc1c(Cl)cc(NC(=S)Nc2ccccc2C(F)(F)F)c(O)c1Cl` [Compound 266], the IC50 against LpCyp18 was greater than 100 µM; on hPin1, less than 1 µM; at hCyp18, greater than 100 µM; at EcParvulin, 1 to 10 µM; on hFKBP12, greater than 100 µM.

As to `O=[N+]([O-])c1ccc(Sc2ccccc2CNc2ccc(F)c(F)c2O)cc1` [Compound 400], the half-maximal inhibitory concentration (IC50) at hPin1 was less than 1 µM.

`Oc1c(Cl)cc(Cl)cc1NCc1cccc(Oc2ccc(Cl)cc2)c1` [Compound 482]: the IC50 is greater than 100 µM against LpCyp18; 1 to 10 µM on hPin1; 10 to 50 µM on hCyp18; greater than 100 µM on EcParvulin; greater than 100 µM at hFKBP12.

For `Cc1c(Cl)cc(NCc2c(F)cccc2Cl)c(O)c1Cl` [Compound 512], the IC50 against LpCyp18 is greater than 100 µM; on hPin1 it was 10 to 50 µM; on hCyp18, 50 to 100 µM; on EcParvulin, 10 to 50 µM; at hFKBP12, greater than 100 µM.

Consider `CCOC(=O)C(Cc1ccccc1)NC(=O)Nc1cc(Cl)c(C)c(Cl)c1O` (stereo not shown) [Compound 593], for which, at hPin1, the concentration for half-maximal inhibition (IC50) fell in the range of 1 to 10 µM.

Consider `CC(C)(C)NC(=O)Nc1cc(NC(=O)NC2CCCCC2)cc(Cl)c1O` [Compound 605], for which the IC50 is greater than 100 µM on LpCyp18; less than 1 µM on hPin1; 10 to 50 µM on hCyp18; 1 to 10 µM on EcParvulin; greater than 100 µM at hFKBP12.

Regarding `O=C(NCCc1ccccc1)Nc1cc(Cl)c(O)c(NCc2ccccc2Sc2ccc(Cl)cc2)c1` [Compound 610], the IC50 on hPin1 is less than 1 µM.

In the case of `CC(C)(C)NC(=O)Nc1cc(NC(=O)NCCc2ccccc2)cc(Cl)c1O` [Compound 622], the half-maximal inhibitory concentration (IC50) at hPin1 was less than 1 µM.

With `CC(C)(C)NC(=O)Nc1cc(-c2nc3ccccc3s2)cc(Cl)c1O` [Compound 636], at hPin1, the half-maximal inhibitory concentration (IC50) is less than 1 µM.

`Oc1c(Cl)cc(-c2nc3ccccc3s2)cc1NC(=S)NCc1ccccc1` [Compound 637]: the half-inhibitory concentration (IC50) on hPin1 lay in the range of 1 to 10 µM.

For `Oc1c(Cl)cc(-c2nc3ccccc3s2)cc1NC(=S)NCCc1ccccc1` [Compound 638], on hPin1, the concentration for half-maximal inhibition (IC50) lay within 1 to 10 µM.

For the compound `Oc1c(Cl)cc(Cl)cc1NCc1ccco1` [Compound 647], the half-maximal inhibitory concentration (IC50) at LpCyp18 is greater than 100 µM; on hPin1 it was 1 to 10 µM; on hCyp18, greater than 100 µM; at EcParvulin it was greater than 100 µM; at hFKBP12 it was greater than 100 µM.

Take `Cc1c(Cl)cc(NCc2ccccc2)c(O)c1Cl` [Compound 655]: the IC50 at LpCyp18 is greater than 100 µM; at hPin1, 10 to 50 µM; at hCyp18 it was greater than 100 µM; on EcParvulin it was 10 to 50 µM; at hFKBP12, greater than 100 µM.

In the case of `Cc1c(Cl)cc(NC(=O)NCCc2nc3ccccc3[nH]2)c(O)c1Cl` [Compound 656], the IC50 on hPin1 is less than 1 µM.

Regarding `Oc1ccc(NCc2ccccc2Sc2ccc(Cl)cc2)c(O)c1` [Compound 672], the IC50 at LpCyp18 fell in the range of 10 to 50 µM; on hCyp18, 1 to 10 µM.

Consider `O=C(NCc1ccccc1)Nc1cc(Cl)c(O)c(Cl)c1` [Compound 700], for which the IC50 on LpCyp18 is greater than 100 µM; on hPin1, less than 1 µM; on hCyp18, greater than 100 µM; on EcParvulin, 10 to 50 µM; at hFKBP12 it was greater than 100 µM.

Regarding `O=C(Nc1cc(Cl)c(O)c(Cl)c1)NC12CC3CC(CC(C3)C1)C2` [Compound 719], the half-inhibitory concentration (IC50) is 10 to 50 µM on LpCyp18, less than 1 µM at hPin1, 50 to 100 µM at hCyp18 and greater than 100 µM at hFKBP12.

For `Oc1c(Cl)cc(NC(=S)Nc2ccccc2C(F)(F)F)cc1Cl` [Compound 894], the half-inhibitory concentration (IC50) at LpCyp18 was greater than 100 µM; at hPin1 it was less than 1 µM; on hCyp18, greater than 100 µM; at EcParvulin, 1 to 10 µM; on hFKBP12, greater than 100 µM.

As to `O=C(CCc1ccccc1)Nc1cc(Cl)c(O)c(Cl)c1` [Compound 1293], the IC50 at LpCyp18 is greater than 100 µM; on hPin1 it was 1 to 10 µM; at hCyp18, greater than 100 µM; on EcParvulin it was 10 to 50 µM; on hFKBP12, greater than 100 µM.

On to `O=C(Cc1ccccc1[N+](=O)[O-])Nc1cc(Cl)c(O)c(Cl)c1` [Compound 1294], for which the IC50 is greater than 100 µM at LpCyp18; less than 1 µM on hPin1; greater than 100 µM at hCyp18; 1 to 10 µM on EcParvulin; greater than 100 µM on hFKBP12.

For the compound `O=C(Cc1ccc2c(c1)OCO2)Nc1cc(Cl)c(O)c(Cl)c1` [Compound 1295], the half-inhibitory concentration (IC50) was greater than 100 µM against LpCyp18; 1 to 10 µM on hPin1; greater than 100 µM at hCyp18; 1 to 10 µM at EcParvulin; greater than 100 µM at hFKBP12.

Turning to `O=C(Nc1cc(Cl)c(O)c(Cl)c1)c1ccc2ccccc2c1` [Compound 1297], the 50% inhibitory concentration (IC50) on LpCyp18 was greater than 100 µM; on hPin1, less than 1 µM; at hCyp18, greater than 100 µM; at EcParvulin it was 10 to 50 µM; on hFKBP12, greater than 100 µM. The EC50 (in general, the concentration that produces a half-maximal response) at 48 h in data set [1] was 50 to 100 µM.

In the case of `O=C(Nc1cc(Cl)c(O)c(Cl)c1)c1ccccc1` [Compound 1298], the IC50 is greater than 100 µM at LpCyp18; less than 1 µM on hPin1; greater than 100 µM at hCyp18; 10 to 50 µM on EcParvulin; greater than 100 µM on hFKBP12.

For `O=C(Nc1cc(Cl)c(O)c(Cl)c1)c1ccco1` [Compound 1299], the IC50 against LpCyp18 was greater than 100 µM; at hPin1 it was less than 1 µM; at hCyp18, less than 1 µM; at EcParvulin, 10 to 50 µM; at hFKBP12, greater than 100 µM.
